Values after ≈ are worked out from the molar mass of the structure shown. Like-named read-outs stand apart in the source and are kept apart here.
Tests used:
[1] = test system: K. pneumoniae (ATCC 10031); assay: MIC assay (broth microdilution), K. pneumoniae; type: cell-based; details: Klebsiella pneumoniae, ATCC10031
Method: The MIC assay protocol was adapted from the broth microdilution methods described by the National Committee for Clinical Laboratory Standards using 96-well plates as described previously. In brief, overnight bacterial cultures were diluted to an OD600 of 0.006 in cation-adjusted Mueller-Hinton medium containing 7% DMSO and incubated at 37° C. for 22 h in the presence of varying concentrations of inhibitors. Following overnight incubation, each well is treated with 10 μL of 3-(4,5-dimethylthiazol-2-yl)-2,5-diphenyltetrazolium bromide (MTT, 5 mg/mL) for 3 h. Finally, the culture is solubilized by addition of 2-propanol, and the results are read by taking the difference of the UV reading at both 570 and 690 nm. MIC values were reported as the lowest compound concentration that inhibited bacterial growth. The baseline for inhibited cell growth was determined to be <4× the average control reading due to the baseline optical density of the initial starting bacterial culture.

[2] = biological target: K. pneumoniae LpxH (KpLpxH) (Klebsiella pneumoniae subsp. pneumoniae (strain ATCC 700721 / MGH 78578), UniProt A6T5R0); assay: LpxE-coupled malachite green LpxH activity assay (KpLpxH inhibition); type: biochemical; details: for Percentage Activity of KpLpxH (vi/v0) / remaining activity at 0.1 µM / inhibition at 0.1 µM: 0.1 μM inhibitor; for Percentage Activity of KpLpxH (vi/v0) / remaining activity at 0.1 µM: normalized against KpLpxH activity in 10% DMSO; for remaining activity at 0.1 µM: read-out: Percentage Activity of KpLpxH (vi/v0); for inhibition at 0.1 µM: read-out: Percentage Inhibition of KpLpxH
Method: Evaluation of LpxH inhibition by analogs: After completing the synthesis of sulfonyl piperazine compounds with various forms of linkers, the KpLpxH inhibition was biochemically characterized by these analogs at 0.1 μM using the nonradioactive, colorimetric malachite green assay that we had previously reported. […] Such an enhanced potency requires the presence of the hydroxamate group, as its substitution with a carboxylate group in compound 7 reduced the compound activity (vi/v0=30±6%).
The LpxE-coupled LpxH activity assay was conducted as described previously using the GB1-K. pneumoniae LpxH-His10 fusion protein. Briefly, two reaction mixtures were prepared. Mixture 1 contains 20 mM Tris-HCl (pH 8.0), 0.5 mg/mL BSA, 0.02% Triton X-100, 1 mM MnCl2, 1 mM DTT, 10% DMSO, and 200 µM substrate (UDP-DAGn), and mixture 2 is comprised of the same buffer, but instead of substrate, contains both LpxH (20 ng/ml) and 2× inhibitor. These mixtures were then pre-incubated at 37° C. for 10 min. To initiate the reaction, an equal volume of the LpxH mixture (mixture 2) was added to the substrate mixture (mixture 1) at 37° C. The final reaction solution contains 100 μM substrate, 10 ng/ml enzyme, and 1× inhibitor. At the desired reaction time points, an aliquot of 20 μL reaction mixture was removed and added to a well in 96-well half-area plate containing 5 mM EDTA (final concentration) to quench the LpxH reaction. Purified Aquifex aeolicus LpxE was then added to a final concentration of 5 μg/mL. The plate was incubated at 37° C. for 30 min followed by addition of formic acid to a final concentration of 3.75 M to quench the LpxE reaction. The malachite green reagent (Sigma Aldrich, catalog MAK307) was diluted 5-fold into the solutions, and the plate was incubated for 30 min at room temperature before the absorbance at 620 nm was measured. All measurements were done in triplicates, and standard error (S.E.) was calculated.

[3] = Table 4, read-out: MIC - K. pneumoniae (ATCC 10031)
[4] = Table 5, read-out: IC50: Average

Compound | MIC [1, 3] | IC50 [2, 4] | other results
CCCCN1CCN(S(=O)(=O)c2ccc3c(c2)CCN3C(C)=O)CC1 [JH-LPH-84] | 32 µg/mL (≈ 87.6 µM) | – | –
O=C(NCCn1cc(C(=O)NO)nn1)Nc1ccc(S(=O)(=O)N2CCN(c3cc(Cl)cc(C(F)(F)F)c3)CC2)cc1 [JH-LPH-62] | 24 µg/mL (≈ 38.9 µM) | – | Percentage Activity of KpLpxH (vi/v0) ([2]; listed as 20 (JH-LPH-62)): 59 ± 7%; remaining activity at 0.1 µM [2]: 59 ± 7%; inhibition at 0.1 µM [2]: 41%
O=C(CCCCNC(=O)Nc1ccc(S(=O)(=O)N2CCN(c3cc(Cl)cc(C(F)(F)F)c3)CC2)cc1)NO [JH-LPH-41] | 10.7 µg/mL (≈ 18.5 µM) | 73 nM | remaining activity at 0.1 µM [2]: 36%; inhibition at 0.1 µM [2]: 64%
CCOC(=O)c1ccc(N2CCN(S(=O)(=O)c3ccc4c(c3)CCN4C(C)=O)CC2)cc1 [JH-LPH-82] | > 64 µg/mL | – | –
O=C(CN1CCOCC1)N1CCc2cc(S(=O)(=O)N3CCN(c4cc(Cl)cc(C(F)(F)F)c4)CC3)ccc21 [JH-LPH-70] | 10.7 µg/mL (≈ 18.6 µM) | 62 nM | –
O=C(CC/C=C/CCC(=O)Nc1ccc(S(=O)(=O)N2CCN(c3cc(Cl)cc(C(F)(F)F)c3)CC2)cc1)NO [JH-LPH-66] | 26.7 µg/mL (≈ 45.3 µM) | – | –
O=C(CCCCNC(=O)N1CCc2cc(S(=O)(=O)N3CCN(c4cc(C(F)(F)F)cc(Cl)n4)CC3)ccc21)NO [JH-LPH-96] | 0.83 µg/mL (≈ 1.37 µM) | 2 nM | –
CS(=O)(=O)N1CCc2cc(S(=O)(=O)N3CCN(c4cc(Cl)cc(C(F)(F)F)c4)CC3)ccc21 [JH-LPH-47] | > 64 µg/mL | – | –
NC(=O)N1CCc2cc(S(=O)(=O)N3CCN(c4cc(Cl)cc(C(F)(F)F)c4)CC3)c(Cl)cc21 [JH-LPH-76] | > 64 µg/mL | – | –
NC(=O)N1CCc2cc(S(=O)(=O)N3CCN(c4cc(C(F)(F)F)ccn4)CC3)ccc21 [JH-LPH-91] | 0.125 µg/mL (≈ 0.274 µM) | 105 nM | –
CC(=O)N1CCc2cc(S(=O)(=O)N3CCN(c4cc(Br)cc(C(F)(F)F)c4)CC3)ccc21 [JH-LPH-48] | > 64 µg/mL | 49 nM | –
NCC(=O)N1CCc2cc(S(=O)(=O)N3CCN(c4cc(Cl)cc(C(F)(F)F)c4)CC3)ccc21 [JH-LPH-71] | 8 µg/mL (≈ 15.9 µM) | – | –
CN(C)CC(=O)N1CCc2cc(S(=O)(=O)N3CCN(c4cc(Cl)cc(C(F)(F)F)c4)CC3)ccc21 [JH-LPH-72] | > 64 µg/mL | – | –
CC(=O)N1CCc2cc(S(=O)(=O)N3CCN(c4cc(C)cc(C(F)(F)F)c4)CC3)ccc21 [JH-LPH-49] | 18.7 µg/mL (≈ 39.9 µM) | 152 nM | –
O=C(/C=C/CCCNC(=O)Nc1ccc(S(=O)(=O)N2CCN(c3cc(Cl)cc(C(F)(F)F)c3)CC2)cc1)NO [JH-LPH-64] | 20 µg/mL (≈ 33.9 µM) | – | Percentage Activity of KpLpxH (vi/v0) ([2]; listed as 18 (JH-LPH-64)): 34 ± 7%; remaining activity at 0.1 µM [2]: 34 ± 7%; inhibition at 0.1 µM [2]: 66%
CS(=O)(=O)Nc1ccc(S(=O)(=O)N2CCN(c3cc(Cl)cc(C(F)(F)F)c3)CC2)cc1 [JH-LPH-77] | > 64 µg/mL | – | –
NC(=O)N1CCc2cc(S(=O)(=O)N3CCN(c4cccc(C(F)(F)F)n4)CC3)ccc21 [JH-LPH-94] | > 64 µg/mL | – | –
NCCNC(=O)N1CCc2cc(S(=O)(=O)N3CCN(c4cc(C(F)(F)F)cc(Cl)n4)CC3)ccc21 [JH-LPH-95] | 4 µg/mL (≈ 7.51 µM) | – | –
O=C(NO)c1ccc(-c2ccccc2C(=O)Nc2ccc(S(=O)(=O)N3CCN(c4cc(Cl)cc(C(F)(F)F)c4)CC3)cc2)cc1 [JH-LPH-80] | – | 431 nM | –
O=C(CCCCCNC(=O)Nc1ccc(S(=O)(=O)N2CCN(c3cc(Cl)cc(C(F)(F)F)c3)CC2)cc1)NO [JH-LPH-50] | 3.33 µg/mL (≈ 5.62 µM) | 8 nM | Ki [2]: 3.1 nM; Percentage Activity of KpLpxH (vi/v0) ([2]; listed as 13 (JH-LPH-50)): 3 ± 2%; remaining activity at 0.1 µM [2]: 3 ± 2%; inhibition at 0.1 µM [2]: 97%; IC50 ([2]; IC50 curves FIG. 3E/4E, read-out: IC50 of KpLpxH inhibition): 7.7 nM; MIC ([1]; K. pneumoniae (ATCC 10031), in vitro, read-out: MIC): 3.3 µg/mL (≈ 5.57 µM)
O=C(NCCCCc1cccn(O)c1=S)Nc1ccc(S(=O)(=O)N2CCN(c3cc(Cl)cc(C(F)(F)F)c3)CC2)cc1 [JH-LPH-60] | – | – | Percentage Activity of KpLpxH (vi/v0) ([2]; listed as 15 (JH-LPH-60)): 39 ± 6%; remaining activity at 0.1 µM [2]: 39 ± 6%; inhibition at 0.1 µM [2]: 61%

Compound | MIC [1, 3] | IC50 [2, 4] | other results
O=C(COCc1ccc2nonc2c1)N1CCc2cc(S(=O)(=O)N3CCN(c4cc(Cl)cc(C(F)(F)F)c4)CC3)ccc21 [JH-LPH-79] | – | 37 nM | –
NCCCNC(=O)N1CCc2cc(S(=O)(=O)N3CCN(c4cc(C(F)(F)F)cc(Cl)n4)CC3)ccc21 [JH-LPH-98] | – | 24 nM | –
O=C(CCCn1cc(C(=O)Nc2ccc(S(=O)(=O)N3CCN(c4cc(Cl)cc(C(F)(F)F)c4)CC3)cc2)nn1)NO [JH-LPH-74] | > 64 µg/mL | – | –
CC(=O)n1ccc2cc(S(=O)(=O)N3CCN(c4cc(Cl)cc(C(F)(F)F)c4)CC3)ccc21 [JH-LPH-42] | > 64 µg/mL | – | –
CC(=O)N1CCc2cc(S(=O)(=O)N3CCN(c4cc(C(F)(F)F)cc(Cl)n4)CC3)ccc21 [JH-LPH-92] | 0.063 µg/mL (≈ 0.129 µM) | 5 nM | –
O=C(CCCCCCC(=O)Nc1ccc(S(=O)(=O)N2CCN(c3cc(Cl)cc(C(F)(F)F)c3)CC2)cc1)NO [JH-LPH-65] | 12 µg/mL (≈ 20.3 µM) | 13 nM | –
NCCCCNC(=O)N1CCc2cc(S(=O)(=O)N3CCN(c4cc(C(F)(F)F)cc(Cl)n4)CC3)ccc21 [JH-LPH-99] | – | 11 nM | –
O=C(CN1CCOCC1)Nc1ccc(S(=O)(=O)N2CCN(c3cc(Cl)cc(C(F)(F)F)c3)CC2)cc1 [JH-LPH-69] | 4 µg/mL (≈ 7.31 µM) | 79 nM | –
CC(=O)N1CCc2cc(S(=O)(=O)N3CCN(c4cc(F)cc(C(F)(F)F)c4)CC3)ccc21 [JH-LPH-28] | 3 µg/mL (≈ 6.36 µM) | 139 nM | –
NC(=O)N1CCc2cc(S(=O)(=O)N3CCN(c4cc(Cl)cc(C(F)(F)F)c4)CC3)c(F)cc21 [JH-LPH-75] | > 64 µg/mL | – | –
O=C(CCCCCC(=O)N1CCc2cc(S(=O)(=O)N3CCN(c4cc(Cl)cc(C(F)(F)F)c4)CC3)ccc21)NO [JH-LPH-46] | – | – | Percentage Activity of KpLpxH (vi/v0) ([2]; listed as 10 (JH-LPH-46)): 93 ± 7%; remaining activity at 0.1 µM [2]: 93 ± 7%; inhibition at 0.1 µM [2]: 7%
O=C(O)CCCCNC(=O)N1CCc2cc(S(=O)(=O)N3CCN(c4cc(Cl)cc(C(F)(F)F)c4)CC3)ccc21 [JH-LPH-55] | – | – | Percentage Activity of KpLpxH (vi/v0) ([2]; listed as 7 (JH-LPH-55)): 30 ± 6%; remaining activity at 0.1 µM [2]: 30 ± 6%; inhibition at 0.1 µM [2]: 70%
CC(=O)N1CCc2cc(S(=O)(=O)N3CCN(c4cc(C(F)(F)F)ccn4)CC3)ccc21 [JH-LPH-86] | 0.125 µg/mL (≈ 0.275 µM) | – | –
O=C(CCCCCCC(O)Cn1cncn1)Nc1ccc(S(=O)(=O)N2CCN(c3cc(Cl)cc(C(F)(F)F)c3)CC2)cc1 (centres unmarked) [JH-LPH-68] | 28 µg/mL (≈ 43.5 µM) | – | –
CC(=O)N1CCc2cc(S(=O)(=O)N3CCN(c4nccc(C(F)(F)F)n4)CC3)ccc21 [JH-LPH-93] | 1.33 µg/mL (≈ 2.92 µM) | 32 nM | –
CC(=O)N1CCc2cc(S(=O)(=O)N3CCN(C4CCCCC4)CC3)ccc21 [JH-LPH-81] | 32 µg/mL (≈ 81.7 µM) | – | –
NC(=O)N1CCc2cc(S(=O)(=O)N3CCN(c4cc(Cl)cc(C(F)(F)F)c4)CC3)ccc21 [JH-LPH-73] | 0.67 µg/mL (≈ 1.37 µM) | 37 nM | –
O=C(NCCn1cc(C(=O)O)nn1)Nc1ccc(S(=O)(=O)N2CCN(c3cc(Cl)cc(C(F)(F)F)c3)CC2)cc1 [JH-LPH-61] | > 64 µg/mL | – | –
O=C(O)CCCCCNC(=O)Nc1ccc(S(=O)(=O)N2CCN(c3cc(Cl)cc(C(F)(F)F)c3)CC2)cc1 [JH-LPH-54] | – | – | Percentage Activity of KpLpxH (vi/v0) ([2]; listed as 12 (JH-LPH-54)): 57 ± 3%; remaining activity at 0.1 µM [2]: 57 ± 3%; inhibition at 0.1 µM [2]: 43%
CC(=O)N1CCc2cc(S(=O)(=O)N3CCN(c4nc(C(F)(F)F)cs4)CC3)ccc21 [JH-LPH-85] | 12 µg/mL (≈ 26.1 µM) | – | –
C/C=C/CN1CCN(S(=O)(=O)c2ccc3c(c2)CCN3C(C)=O)CC1 [JH-LPH-83] | 64 µg/mL (≈ 176 µM) | – | –
